{
  "source": "PubChem BioAssay AID1259408",
  "about": "(Genetic Toxicology Data Bank (GENE-TOX), 2018)",
  "test_system": "GENE-TOX genotoxicity assays, various organisms and cells",
  "experiment": "GENE-TOX mutagenicity studies",
  "details": "for call: Assay Type: In vivo carcinogenicity studies",
  "key": {"[1]": {"details": "Species/Cell Type: Mammalian polychromatic erythrocytes, Assay Type: Micronucleus test, chromosome aberrations, Assay Code: MNTT, Evaluation Type: Evaluation A (Pre-1980)"}, "[2]": {"details": "Species/Cell Type: Nonhuman, Assay Code: CCG+, Evaluation Type: Evaluation A (Pre-1980)"}, "[3]": {"details": "Species/Cell Type: Human, Assay Type: Sister-chromatid exchange (SCE) in vitro, Assay Code: SC1+, Evaluation Type: Evaluation B (Post-1980)"}},
  "note": "Active and inactive are the calls of the source. The rule behind the calls is not given here.",
  "data": [
    {"compound": "Cc1ccc2cc3c(ccc4ccccc43)c3c2c1CC3", "values": [
      {"measurement": "mutagenic call", "setting": "Species/Cell Type: Chinese hamster lung (V79) cells, Assay Type: Forward gene mutation at the HPRT or ouabain locus, Assay Code: V79+*, Activation: With metabolic activation, Evaluation Type: Evaluation A (Pre-1980)", "value": "active; positive"},
      {"measurement": "mutagenic call", "setting": "Species/Cell Type: Chinese hamster lung (V79) cells, Assay Type: Forward gene mutation, host-mediated assay, Assay Code: HMG+, Evaluation Type: Evaluation A (Pre-1980)", "value": "active; positive"},
      {"measurement": "mutagenic call", "setting": "Species/Cell Type: Chinese hamster ovary (CHO) cells, Assay Type: Forward gene mutation at the HPRT locus, Assay Code: CHO+*, Activation: With metabolic activation, Evaluation Type: Evaluation B (Post-1980)", "value": "active; positive"},
      {"measurement": "mutagenic call", "setting": "Species/Cell Type: Drosophila melanogaster, Assay Type: Sex-linked recessive lethal gene mutation, Assay Code: SRLT, Evaluation Type: Evaluation A (Pre-1980)", "value": "no conclusion"},
      {"measurement": "mutagenic call", "setting": "Species/Cell Type: Fischer rat embryo (RLV/1706) cells, Assay Type: Cell transformation, viral enhanced, Assay Code: CTR+, Evaluation Type: Evaluation A (Pre-1980)", "value": "active; positive"},
      {"measurement": "mutagenic call", "setting": "Species/Cell Type: Fischer rat embryo (SA7/RE) cells, Assay Type: Cell transformation, viral enhanced, Assay Code: CTA+, Evaluation Type: Evaluation A (Pre-1980)", "value": "active; positive"},
      {"measurement": "mutagenic call", "setting": "Species/Cell Type: Human diploid fibroblasts, Assay Type: Unscheduled DNA synthesis (UDS) in vitro, DNA effects, Assay Code: UDH+, Evaluation Type: Evaluation A (Pre-1980)", "value": "active; positive"},
      {"measurement": "mutagenic call", "setting": "Species/Cell Type: Human lymphocytes, Assay Type: Sister-chromatid exchange (SCE) in vitro, Assay Code: SCL+D, Dose Response: With dose response, Evaluation Type: Evaluation B (Post-1980)", "value": "active; positive"},
      {"measurement": "mutagenic call", "setting": "Species/Cell Type: Human, Assay Type: Sister-chromatid exchange (SCE) in vitro, Assay Code: SC1+D, Dose Response: With dose response, Evaluation Type: Evaluation B (Post-1980)", "value": "active; positive"},
      {"measurement": "mutagenic call", "setting": "[1]", "value": "no conclusion"},
      {"measurement": "mutagenic call", "setting": "Species/Cell Type: Mouse (BALB/c-3T3) cells, Assay Type: Cell transformation, Assay Code: CTB+D, Dose Response: With dose response, Evaluation Type: Evaluation A (Pre-1980)", "value": "active; positive"},
      {"measurement": "mutagenic call", "setting": "Species/Cell Type: Mouse (C3H/10T1/2) cells, Assay Type: Cell transformation, Assay Code: CTH+D, Dose Response: With dose response, Evaluation Type: Evaluation A (Pre-1980)", "value": "active; positive"},
      {"measurement": "mutagenic call", "setting": "Species/Cell Type: Mouse embryo (AKR/ME) cells, Assay Type: Cell transformation, Assay Code: CTK+, Evaluation Type: Evaluation A (Pre-1980)", "value": "active; positive"},
      {"measurement": "mutagenic call", "setting": "Species/Cell Type: Mouse prostate cells, Assay Type: Cell transformation, Assay Code: CTM+D, Dose Response: With dose response, Evaluation Type: Evaluation A (Pre-1980)", "value": "active; positive"},
      {"measurement": "mutagenic call", "setting": "Species/Cell Type: Mouse, Sex: Male, Assay Type: Sperm morphology, Assay Code: SPI+, Evaluation Type: Evaluation A (Pre-1980)", "value": "active; positive"},
      {"measurement": "mutagenic call", "setting": "Species/Cell Type: Neurospora crassa, Assay Type: Forward gene mutation, Assay Code: NEF+, Evaluation Type: Evaluation A (Pre-1980)", "value": "active; positive"},
      {"measurement": "mutagenic call", "setting": "Species/Cell Type: Nonhuman, Assay Type: Chromosome aberrations in vitro, Assay Code: CY&-, Evaluation Type: Evaluation A (Pre-1980)", "value": "inactive; negative"},
      {"measurement": "call", "setting": "[2]", "value": "active; positive"},
      {"measurement": "mutagenic call", "setting": "Species/Cell Type: Nonhuman, Assay Type: Sister-chromatid exchange (SCE) in vitro, Assay Code: SC2+, Evaluation Type: Evaluation A (Pre-1980)", "value": "active; positive"},
      {"measurement": "mutagenic call", "setting": "Species/Cell Type: Nonhuman, Assay Type: Sister-chromatid exchange (SCE) in vivo, Assay Code: SC3+D, Dose Response: With dose response, Evaluation Type: Evaluation A (Pre-1980)", "value": "active; positive"},
      {"measurement": "mutagenic call", "setting": "Species/Cell Type: Rat primary hepatocytes, Assay Type: Unscheduled DNA synthesis (UDS) in vitro, DNA effects, Assay Code: UDP+D, Dose Response: With dose response, Evaluation Type: Evaluation A (Pre-1980)", "value": "active; positive"},
      {"measurement": "mutagenic call", "setting": "Species/Cell Type: Salmonella typhimurium (one or more of the five standard strains: TA98, TA100, TA1535, TA1537, and TA1538), Assay Type: Histidine reverse gene mutation, Ames assay, Assay Code: SAL+*, Activation: With metabolic activation, Evaluation Type: Evaluation A (Pre-1980)", "value": "active; positive"},
      {"measurement": "mutagenic call", "setting": "Species/Cell Type: Salmonella typhimurium, Assay Type: Forward and reverse gene mutation, body fluid assay, Assay Code: BFU-, Evaluation Type: Evaluation A (Pre-1980)", "value": "inactive; negative"},
      {"measurement": "mutagenic call", "setting": "Species/Cell Type: Syrian hamster embryo (SA7/SHE) cells, Assay Type: Cell transformation, viral enhanced, Assay Code: CT7+, Evaluation Type: Evaluation A (Pre-1980)", "value": "active; positive"},
      {"measurement": "mutagenic call", "setting": "Species/Cell Type: Syrian hamster embryo (SHE) cells, Assay Type: Cell transformation, clonal assay, Assay Code: CTC+D, Dose Response: With dose response, Evaluation Type: Evaluation A (Pre-1980)", "value": "active; positive"},
      {"measurement": "mutagenic call", "setting": "Species/Cell Type: Syrian hamster embryo (SHE) cells, Assay Type: Cell transformation, focus assay, Assay Code: CTF+, Evaluation Type: Evaluation A (Pre-1980)", "value": "active; positive"}
    ]},
    {"compound": "CC(C)C[C@H](NC(=O)N[C@H](C(=O)N[C@@H](CCC(N)=O)C(=O)N[C@@H](C)C=O)[C@@H]1CCNC(N)=N1)C(=O)O", "values": [
      {"measurement": "mutagenic call", "setting": "Species/Cell Type: Human, Assay Type: Sister-chromatid exchange (SCE) in vitro, Assay Code: SC1T, Evaluation Type: Evaluation B (Post-1980)", "value": "no conclusion"},
      {"measurement": "mutagenic call", "setting": "Species/Cell Type: Nonhuman, Assay Type: Sister-chromatid exchange (SCE) in vitro, Assay Code: SC2T, Evaluation Type: Evaluation B (Post-1980)", "value": "no conclusion"}
    ]},
    {"compound": "CCCc1cc(=O)[nH]c(=S)[nH]1", "values": [
      {"measurement": "call", "setting": "[2]", "value": "active; positive"}
    ]},
    {"compound": "Cc1cc(=O)oc2cc(O)ccc12", "values": [
      {"measurement": "mutagenic call", "setting": "Species/Cell Type: Allium cepa, Assay Type: Chromosome aberrations, Assay Code: ALC+, Evaluation Type: Evaluation A (Pre-1980)", "value": "active; positive"}
    ]},
    {"compound": "O=[N+]([O-])c1ccc(-c2nc(N3CCOCC3)c3ccccc3n2)s1", "values": [
      {"measurement": "mutagenic call", "setting": "Species/Cell Type: Salmonella typhimurium (one or more of the five standard strains: TA98, TA100, TA1535, TA1537, and TA1538), Assay Type: Histidine reverse gene mutation, Ames assay, Assay Code: SAL+, Evaluation Type: Evaluation A (Pre-1980)", "value": "active; positive"}
    ]},
    {"compound": "CCN(CC)CCCC(C)Nc1c2ccc(Cl)cc2nc2ccc(OC)cc12", "note": "(stereo unspecified)", "values": [
      {"measurement": "mutagenic call", "setting": "Species/Cell Type: Escherichia coli polA (W3119 vs P3478), Assay Type: Rec-assay, DNA effects (bacterial DNA repair), Assay Code: RE1+, Evaluation Type: Evaluation A (Pre-1980)", "value": "active; positive"},
      {"measurement": "mutagenic call", "setting": "Species/Cell Type: Human lymphocytes, Assay Type: Sister-chromatid exchange (SCE) in vitro, Assay Code: SCL+, Evaluation Type: Evaluation B (Post-1980)", "value": "active; positive"},
      {"measurement": "mutagenic call", "setting": "[3]", "value": "active; positive"},
      {"measurement": "mutagenic call", "setting": "Species/Cell Type: Mammalian polychromatic erythrocytes, Assay Type: Micronucleus test, chromosome aberrations, Assay Code: MNT+, Evaluation Type: Evaluation B (Post-1980)", "value": "active; positive"},
      {"measurement": "mutagenic call", "setting": "[1]", "value": "no conclusion"},
      {"measurement": "mutagenic call", "setting": "Species/Cell Type: Mouse, Sex: Male, Assay Type: Sperm morphology, Assay Code: SPI-, Evaluation Type: Evaluation A (Pre-1980)", "value": "inactive; negative"}
    ]},
    {"compound": "CCOP(=S)(OCC)Oc1cc(C)nc(C(C)C)n1", "values": [
      {"measurement": "mutagenic call", "setting": "Species/Cell Type: Bacillus subtilis (H17 vs M45), Assay Type: Rec-assay, spot test, DNA effects (bacterial DNA repair), Assay Code: REWT, Evaluation Type: Evaluation A (Pre-1980)", "value": "no conclusion"},
      {"measurement": "mutagenic call", "setting": "Species/Cell Type: Escherichia coli WP2 UVRA, Assay Type: Tryptophan reverse gene mutation, Assay Code: WPU-*, Activation: With metabolic activation, Evaluation Type: Evaluation A (Pre-1980)", "value": "inactive; negative"},
      {"measurement": "mutagenic call", "setting": "Species/Cell Type: Escherichia coli polA (W3119 vs P3478), Assay Type: Rec-assay, DNA effects (bacterial DNA repair), Assay Code: RE1T, Evaluation Type: Evaluation A (Pre-1980)", "value": "no conclusion"},
      {"measurement": "mutagenic call", "setting": "Species/Cell Type: Human diploid fibroblasts, Assay Type: Unscheduled DNA synthesis (UDS) in vitro, DNA effects, Assay Code: UDH-, Evaluation Type: Evaluation A (Pre-1980)", "value": "inactive; negative"},
      {"measurement": "mutagenic call", "setting": "[3]", "value": "active; positive"},
      {"measurement": "call", "setting": "Species/Cell Type: Nonhuman, Assay Code: CCG-, Evaluation Type: Evaluation A (Pre-1980)", "value": "inactive; negative"},
      {"measurement": "mutagenic call", "setting": "Species/Cell Type: Nonhuman, Assay Type: Sister-chromatid exchange (SCE) in vitro, Assay Code: SC2+, Evaluation Type: Evaluation B (Post-1980)", "value": "active; positive"},
      {"measurement": "mutagenic call", "setting": "Species/Cell Type: Saccharomyces cerevisiae, Assay Type: Mitotic recombination or gene conversion, Assay Code: YEH-, Evaluation Type: Evaluation A (Pre-1980)", "value": "inactive; negative"},
      {"measurement": "mutagenic call", "setting": "Species/Cell Type: Salmonella typhimurium (one or more of the five standard strains: TA98, TA100, TA1535, TA1537, and TA1538), Assay Type: Histidine reverse gene mutation, Ames assay, Assay Code: SAL-, Evaluation Type: Evaluation A (Pre-1980)", "value": "inactive; negative"}
    ]}
  ]
}
